Results on nine compounds are retold here after publication PMC6403363, “Proteolytic Degradation of reduced Human Beta Defensin 1 generates a Novel Antibiotic Octapeptide” (Scientific Reports, 2019).

Where a SMILES comes first, the peptide text is derived from it. Where no end group is shown, it is not given here.

In one series the test system is Escherichia coli. Briefly: Radial diffusion assay. It counts as cell-based. As to conditions: for antimicrobial activity against E. coli (diameter of inhibition zones): 4 µg peptide, variants compared with RGKAKCCK (Fig. 1E,F, Fig. 2A). On the procedure:
(§1) Antimicrobial radial diffusion assay was modified from reference[17] and performed as described earlier. Briefly, microorganisms were cultivated (anaerobic bacteria with AnaeroGen, Oxoid, UK) for up to 18 hours in liquid TSB medium. Log-phase cultures were washed and diluted to 4 × 10^6 colony forming units in 10 ml agar. Incubation was carried out in 10 ml of 10 mM sodium phosphate, either pH 7.4 or 5.7, containing 0.3 mg/ml of TSB powder and 1% (w/v) low EEO-agarose (AppliChem) with 0 or 1 mM dithiothreitol (DTT, Sigma-Aldrich) under anaerobic or aerobic conditions for three hours. 1 or 4 µg of synthetic, oxidized hBD-1 (Peptide Institute, Japan) and 1 or 4 µg of synthetic peptides (EMC Microcollections, Tuebingen) were filled into small punched wells in a final volume of 4 µl. This concentrated peptide solution dilutes while diffusing into the gel, thereby generating concentration-dependent, round-shaped inhibition zones when killing immobilized microorganisms.
(§2) An overlay-gel containing 6% (w/v) TSB powder, 1% agarose and 10 mM sodium phosphate buffer without DTT was poured onto the plates and after incubation for up to 48 h at 37 °C the diameter of inhibition zones was measured. Experiments were repeated at least three times; mean + SEM is shown.

The subject of the next series is Candida albicans. Briefly: Radial diffusion assay. As to conditions: for antimicrobial activity against C. albicans (diameter of inhibition zones): 4 µg peptide, variants compared with RGKAKCCK (Fig. 1E,F, Fig. 2A). It counts as cell-based. As for the experimental part: as §1, §2
Another series concerns Pseudomonas aeruginosa. Briefly: Radial diffusion assay. As to conditions: P. aeruginosa ATCC type strain (Figs 1D, 2A). The series is classed as cell-based. On the procedure:
as §1, §2

The subject of series [1] is Bifidobacterium adolescentis. Briefly: Radial diffusion assay. The series is classed as cell-based. As to conditions: 10 mM sodium phosphate, 1 or 4 µg peptide per well, at least three experiments (Fig. 1D). As for the experimental part: as §1, §2
Series [2] deals with Streptococcus salivarius ssp. thermophilus. Nature of the series: Radial diffusion assay. It counts as cell-based. The conditions noted are these: 1 or 4 µg peptide per well, at least three experiments (Fig. 1D). On the procedure: as §1, §2
In the next series the test system is Bifidobacterium breve. Nature of the series: Radial diffusion assay. The series is classed as cell-based. As to conditions: 1 or 4 µg peptide per well (Fig. 1D). As for the experimental part:
as §1, §2

The next series concerns C. albicans ATCC 10231. Nature of the series: Flow cytometric assay, propidium iodide uptake. It counts as cell-based, Candida albicans. The conditions noted are these: 100 µg/ml peptide, 1 h, flow cytometry (Fig. 3A). On the procedure:
(§3) Approximately 1.5 × 10^6 CFU log-phase bacteria or overnight cultured C. albicans ATCC 10231 were used in a final volume of 100 µl TSB (1:6 diluted H2O). We added peptides in concentrations 50 and 100 µg/ml in a final volume of 10 µl and incubated theses suspensions for 1 h at 37 °C. Subsequently 2 µl of membrane potential sensitive dye DiBAC4(3) [bis-[1,3-dibutylbarituric acid)trimethine oxonol] (Thermo Scientific, USA) (50 µg/ml) or Propidium Iodide (Thermo Scientific, USA) (50 µg/ml) were added and incubated for 10 min at room temperature. Then samples were centrifuged (5 min, 7000 rpm, RT) and re-suspended in 300 µl PBS. The percentage of fluorescent positive cells was determined using Canto II flow cytometer (BD Bioscience) with DIVA software (BD Bioscience) as described earlier. Experiments were repeated at least three times and mean +/− SEM is shown.

The test system of another series is C. albicans SC5314. Nature of the series: Model of oral candidiasis: RHOE infected with C. albicans. The series is classed as cell-based, Candida albicans. The conditions noted are these: RHOE preincubated 1 h with 50 µg/ml peptide, infected with C. albicans for 24 h; for fungal load / invasion of the epithelium: histology (Fig. 5A). As for the experimental part: Octapeptides were diluted to 50 µg/ml in PBS, or an equivalent volume of 0.01% acetic acid were applied to the apical side of the RHOEs and incubated for 1 h. C. albicans SC5314 was synchronized as described previously. Yeast cells were washed three times in PBS and 1 × 10^5 CFU were used for infection of pre-treated RHEs. After 24 h RHEs were fixed with Karnovsky’s fixative. Post-fixed samples (1% OsO4, 1 h) were rinsed with distilled water, block-stained with uranyl acetate (2% in distilled water), dehydrated in alcohol (stepwise 30–96%), immersed in propylene oxide and embedded in glycide ether (polymerized 48 h at 60 °C, Serva, Heidelberg). Semi-thin sections were stained with toluidine blue and examined with a Nikon Eclipse 80i light microscope (magnification 1:400). Afterwards, fungal cells were simply coloured in red.

In series [3] the test system is selected commensal and pathogenic microorganisms. Nature of the series: Radial diffusion assay, semi-quantitative evaluation on a molar base. The conditions noted are these: 4 µg reduced hBD-1 equivalent to 254 µM, 1 µg octapeptide equivalent to 280 µM in the RDA. The series is classed as cell-based. On the procedure:
as §1, §2

The test system of series [4] is E. coli ATCC 25922. Briefly: Flow cytometric assay, propidium iodide uptake. It counts as cell-based, Escherichia coli. As to conditions: 100 µg/ml peptide, 1 h, flow cytometry, at least three experiments (Fig. 3A). As for the experimental part:
as §3

Series [5] has as its system E. coli ATCC 25922. Nature of the series: Broth microdilution assay (turbidity and CFU). The series is classed as cell-based, Escherichia coli. As to conditions: 100 µg/ml peptide, 2 hours at 37 °C, plated on agar (Fig. 2D). On the procedure: To differentiate between microbistatic and microbicidal activity we performed a broth microdilution assay. For that, E. coli ATCC25922 bacteria were incubated overnight at 37 °C, 150 rpm. C. albicans ATCC 10231 was grown at 30 °C overnight, 150 rpm in liquid TSB. Cells were collected by centrifugation (2500 rpm, 10 min, 4 °C), washed twice and resuspended in 10 mM sodium phosphate buffer containing 1% (w/v) TSB broth. Required C. albicans cell density was adjusted using a hemocytometer. For bacteria the optical density of OD600nm = 0.1 was determined. Approximately 5 × 10^5 CFU/ml bacteria or fungi were mixed with indicated peptide concentrations (1.25–200 µg/ml) in a final volume of 100 µl in 10 mM sodium phosphate buffer containing 1% (w/v) TSB broth and incubated for 2 hours at 37 °C. After incubation 10 µl per well were plated on LB-/ or YPD-agar plates to determine the CFU/ml. After that 100 µl of 6% TSB (w/v) were added and absorbance was measured at 600 nm (Tecan, Switzerland) and monitored for 18 hours. Growth relative to the positive control in % was plotted against peptide concentration. Experiments were carried out at least three times; mean ± SEM is shown.

In series [6] the test system is antibiotic-resistant bacteria. Briefly: Radial diffusion assay, drug-resistant clinical isolates overall. It counts as cell-based. The conditions noted are these: 4 µg peptide, direct comparison of the four peptides (Fig. 2B). As for the experimental part:
as §1, §2

Another series has as its system chymotrypsin. Briefly: Protease digestion with chymotrypsin, fragments analysed by MALDI-MS. The series is classed as in vitro ADME. As to conditions: 2 µg peptide, protease:peptide 1:20, 10 mM sodium phosphate pH 7.4, 90 min. On the procedure:
(§4) 2 µg of oxidized or reduced hBD-1 were digested with pepsin or chymotrypsin at a protease: peptide ratio of 1:20 in HCl-acidified water, pH 3 (pepsin) or 10 mM sodium phosphate, pH 7.4 (chymotrypsin) for 90 min. Human duodenal secretion (pH 6.5–7) was taken during a routine gastroscopy by rinsing the duodenum with saline. Oxidized and reduced hBD-1 were incubated with human duodenal secretion for 30 min at 37 °C. As a control both peptides were incubated with 0.9% NaCl. Peptides were enriched with ZipTip (Millipore), co-crystallized with a-cyano-4-hydroxy cinnamic acid and analyzed with an ultraflex TOF/TOF machine (Bruker, Germany).

A further series relates to pepsin. Nature of the series: Protease digestion with pepsin, fragments analysed by MALDI-MS. The conditions noted are these: 2 µg peptide, protease:peptide 1:20, HCl-acidified water pH 3, 90 min. The series is classed as in vitro ADME. As for the experimental part: as §4
Series [7] is classed as in vitro ADME, human. The conditions noted are these: pH 6.5. On the procedure: as §4
Another series relates to trypsin. The conditions noted are these: cited from earlier work. From the text:
Due to their ancient evolutionary origin and the strong demand for novel antimicrobial strategies, AMPs have been considered as potential antibiotic drug candidates. Mainly because they target “Achilles heels” of microorganisms, only few resistance mechanisms have been evolved over long time[14],[15]. Still, large-scale chemical synthesis of defensins containing three native disulphide-bridges has been a challenge and rendered the production expensive. Accordingly, the production of smaller, but yet antibiotic, fragments of defensins without disulphide bridges is a promising option. We have sh ...

The mark [8] stands for this setting: 1 or 4 µg peptide per well, at least three experiments (Fig. 1D).

On to “RGKAKACK [octapeptide with Cys6 replaced by alanine]”, for which the “antimicrobial activity against E. coli (diameter of inhibition zones)” value with Escherichia coli is “increased”. In the series on Candida albicans, the “antimicrobial activity against C. albicans (diameter of inhibition zones)” value is “strongly decreased activity”.

Regarding `C[C@H](NC(=O)[C@H](CCCCN)NC(=O)CNC(=O)[C@@H](N)CCCNC(=N)N)C(=O)N[C@@H](CCCCN)C(=O)N[C@@H](CS)C(=O)N[C@@H](CS)C(=O)N[C@@H](CCCCN)C(=O)O` [RGKAKCCK] (H-RGKAKCCK-OH), the “antimicrobial activity (diameter of inhibition zones)” value is listed as “neglectable antibiotic activity” with Pseudomonas aeruginosa; “convincing activity” with Escherichia coli (setting [8]); “convincing activity” in series [1]; “convincing activity” with Candida albicans (setting [8]); “convincing activity” in series [2]. Besides, the “antimicrobial activity (inhibition zones)” value with Bifidobacterium breve is reported as “no inhibition zones”. In addition, the “PI uptake of C. albicans” value with C. albicans ATCC 10231 is “up to 60%”. In addition, the epithelial damage entry in the series with C. albicans SC5314 (blinded scale 0 to 5 (Fig. 5B)) is “ameliorated epithelial damage”. The “fungal load / invasion of the epithelium” value in the series with C. albicans SC5314 is “convincingly reduced the fungal load”. The “activity on a molar base compared with the full length-peptide” value in series [3] is “less potent”. Further, the “PI uptake / bacterial killing (cell death) of E. coli” value in the series on E. coli ATCC 25922 [4] is on record as about 100%. In addition, in the series with E. coli ATCC 25922 [5], the “decrease in CFU of E. coli compared to untreated controls” value was “more than 100 fold”. The “spectrum against the tested antibiotic-resistant bacteria” value in series [6] was “inhibited growth of the most tested antibiotic-resistant bacteria”.

On to “RGKAKAAK [octapeptide with both cysteines replaced]”, for which, in the series on Escherichia coli, the “antimicrobial activity against E. coli (diameter of inhibition zones)” value is on record as “completely abolished activity”. Besides, in the series with Candida albicans, the “antimicrobial activity against C. albicans (diameter of inhibition zones)” value was “completely abolished activity”.

On to “AGAAKCCK [variant lacking Arg1 and Lys3]”, for which the “antimicrobial activity against E. coli (diameter of inhibition zones)” value in the series on Escherichia coli was “completely inactive”. In the series on Candida albicans, the “antimicrobial activity against C. albicans (diameter of inhibition zones)” value was “completely inactive”.

Take `CC(=O)N[C@@H](CCCNC(=N)N)C(=O)NCC(=O)N[C@@H](CCCCN)C(=O)N[C@@H](C)C(=O)N[C@@H](CCCCN)C(=O)N[C@@H](CS)C(=O)N[C@@H](CS)C(=O)N[C@@H](CCCCN)C(N)=O` [Ac-RGKAKCCK-NH2] (Ac-RGKAKCCK-NH2): the “fungal load / invasion of the epithelium” value in the series with C. albicans SC5314 is recorded as “invaded the whole epithelium”. Besides, in the series on E. coli ATCC 25922 [5], the “decrease in CFU of E. coli compared to untreated controls” value is given as “more than 100 fold”.

For the compound “DHYNCVSSGGQCLYSACPIFTKIQGTCYRGKAKCCK (disulfide (positions not given here)) [oxidized hBD-1, host-defense peptide human beta-defensin 1 with three disulphide bridges]”, the “proteolytic susceptibility towards chymotrypsin” value in the series on chymotrypsin is reported as “protease resistant”. The “proteolytic susceptibility towards pepsin” value in the series on pepsin was “protease resistant”. Further, the “antimicrobial activity (inhibition zones)” value in the series with Bifidobacterium breve is reported as “no inhibition zones”.

For “DHYNCVSSGGQCLYSACPIFTKIQGTCYRGKAKCCK [reduced hBD-1, hBD-1 after reduction of its three disulphide bridges, a linear peptide]”, in the series with Bifidobacterium breve, the “antimicrobial activity (inhibition zones)” value was “inhibited its growth”. For the same compound, the “digestion by human duodenal secretion (generation of fragment m/z 893.5)” value in series [7] is on record as “generated a fragment having an m/z of 893.5”. Also, in the series on trypsin, the “degradation by the intestinal protease trypsin” value was “can be degraded”.

Turning to AGKAKCCK [variant lacking Arg1], the “antimicrobial activity against E. coli (diameter of inhibition zones)” value in the series on Escherichia coli was “completely inactive”. The “antimicrobial activity against C. albicans (diameter of inhibition zones)” value in the series on Candida albicans is “completely inactive”.

For the compound “RGKAKCAK [octapeptide with Cys7 replaced by alanine]”, the “antimicrobial activity against E. coli (diameter of inhibition zones)” value in the series with Escherichia coli is given as “increased”. Further, the “antimicrobial activity against C. albicans (diameter of inhibition zones)” value with Candida albicans is “strongly decreased activity”.
